Entries after “also recorded” stand apart in the source; their conditions may differ.
What was measured:
ALDH1B1 [1] = target: T1, ALDH1B1 (Homo sapiens, UniProt P30837); test: ALDEFLUOR assay of cellular ALDH1B1 activity in ALDH1B1-transfected ALDH1A3−/− A375 cells; assay type: cell-based
T1 sequence (P30837 18-517): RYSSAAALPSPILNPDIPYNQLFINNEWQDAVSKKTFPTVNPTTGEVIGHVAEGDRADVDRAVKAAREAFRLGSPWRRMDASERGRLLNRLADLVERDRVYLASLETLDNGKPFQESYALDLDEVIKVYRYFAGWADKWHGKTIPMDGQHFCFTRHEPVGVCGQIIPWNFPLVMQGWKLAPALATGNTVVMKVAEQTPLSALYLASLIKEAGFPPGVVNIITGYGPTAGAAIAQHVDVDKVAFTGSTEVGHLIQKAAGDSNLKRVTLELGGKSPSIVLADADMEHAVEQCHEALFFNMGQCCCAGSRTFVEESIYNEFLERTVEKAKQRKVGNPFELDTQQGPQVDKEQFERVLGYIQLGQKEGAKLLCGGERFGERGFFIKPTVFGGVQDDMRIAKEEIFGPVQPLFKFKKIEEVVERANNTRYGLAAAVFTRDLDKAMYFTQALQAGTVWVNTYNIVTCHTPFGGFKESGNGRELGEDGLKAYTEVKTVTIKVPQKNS
Experimental: ALDH1A3^−/− A375 cells were seeded into a 6-well plate at a density of 5×10^5 cells/well and cultured for 24 h. The cells were then transfected with either pCMV6-entry, pCMV6-GFP (Addgene, plasmid 11153), or pCMV-ALDH1B1. After 24 h, the media was replaced and transfection efficiencies were estimated by the EGFP-positive cells in the pCMV-GFP-transfected well. The cells were cultured for another 24 h and their ALDH activities were quantified using the ALDEFLUOR assay. Briefly, the cells were isolated from the plate with trypsin and resuspended in ALDEFLUOR assay buffer (STEMCELL Technologies) at a concentration of 4×10^5 cells/mL. Each ALDEFLUOR assay used 0.5 mL of this cell suspension, and the cells were treated with individual compounds for 15 min at 37° C. and 5% CO2. The cell suspensions were then treated with 2.5 μL ALDEFLUOR reagent and incubated for an additional 30 min at 37° C. and 5% CO2. The cells were then collected by centrifugation (450×g) for 5 min at room temperature, resuspended in 200 μL assay buffer, and analyzed with an LSR II flow cytometer (BD Biosciences) at the Stanford FACS facility.

ALDH1B1 [2] = target: T1, ALDH1B1; test: ALDH1B1 enzyme kinetics assay (NADH fluorescence, acetaldehyde substrate); assay type: biochemical; set-up: made in house; host or cells: E. coli BL21 (optionally co-expressed with GroEL/GroES); details: for ALDH1B1 inhibition / isoform selectivity (in words): enzyme kinetics assays against ALDH isoforms; for IC50: 1 μg/mL enzyme, 1 mM acetaldehyde, 1 mM NAD+, read-out: ALDH1B1(in vitro) IC50
Experimental: Cloning, expression, and purification of human recombinant ALDH1A1, ALDH1A3, ALDH2, ALDH3A1, ALDH3A2, ALDH4A1, ALDH5A1 and ALDH7A1 isozymes were conducted as described previously (Chen, C. H. et al. (2015) Proc. Natl. Acad. Sci. U.S.A. 112, 3074-3079). Human ALDH1A2 (Origene, SC109995) and ALDH1B1 (T. Hurley, Indiana University) plasmids were cloned into the pET-15b expression vector (Novagen, 69661-3) containing an N-terminal hexahistidine tag. The mitochondria-targeting sequence of ALDH1B1 was also removed. For protein expression without chaperones, the pET-15b based plasmids were transformed into competent BL21 E. coli cells, which were subsequently grown in 1 L of Luria-Bertani medium containing 100 μg/mL ampicillin at 37° C. Once the OD600 value reached 0.6, the culture was transferred to 16° C. and 0.5 mM isopropyl β-d-1-thiogalactopyranoside was introduced to induce protein expression overnight. The bacteria were then pelleted by centrifugation (3000×g, 4° C. for 30 rain) and harvested. 40 mL BugBuster Master Mix buffer (MilliporeSigrna) containing a protease inhibitor cocktail (cOmplete; Roche) was added, and the cells were lysed by mechanically rolling the suspension at room temperature for 25 min. The lysate was centrifuged (16000×g, 4° C. for 30 min), and the soluble fraction was collected and mixed with 2 mL of Ni-NTA Superflow resin (Qiagen). After the mixture was avowed to rock at 4° C. for 1 h, it was used to create a 10-mL gravity column, which was sequentially treated with 40 mL of wash buffer 1 (20 mM sodium phosphate, 500 mM NaCl, 1 mM DTT, 20 mM imidazole, 5% glycerol, pH 7.4) and 25 mL of wash buffer 2 (20 mM sodium phosphate, 500 mM NaCl, 1 mM DTT, 40 mM imidazole, 5% glycerol, pH 7.4). The hexahistidine-tagged protein was then recovered by treated the column with 5 mL elution buffer (20 mM sodium phosphate, 500 mM NaCl, 1 mM DTT, 400 mM imidazole, 5% glycerol, pH 7.4) and collecting 500-μL fractions. The protein concentration for each fraction was measured (500 μL elution volume was collected as one fraction and was immediately mixed with 500 μL glycerol. The protein concentration for each fraction was measured (600 nm Protein Assay Reagent; Thermo Fisher Scientific), and protein-containing fractions were diluted with an equal volume of glycerol and stored at −80° C. Samples from each step were also collected for SDS-PAGE gel analysis. For ALDH1B1 protein co-expression with chaperones, pET-15b-ALDH1B1 and GroEL/GroES (Addgene, plasmid pBB541) plasmids were co-transformed into competent BL21 E. coli cells, which were subsequently grown in 1 L of Luria-Bertani medium containing 100 μg/mL ampicillin and 50 μg/mL spectinomycin at 37° C. The hexahistidine-tagged ALDH1B1 protein was then expressed and purified as described above.
To evaluate compound activities against ALDH isoforms, reaction mixtures consisting of enzyme assay buffer (100 mM sodium phosphate, 1 mM MgCl2, pH 8.0) and 0.1% DMSO, 1 mM β-mercaptoethanol, 1 mM NAD^+, and the bacterially expressed protein were prepared in white opaque 96-well assay plates (100 μL/well, flat-bottom and non-treated; Corning Costar). 5 μg/mL ALDH enzyme was used for single-dose (1, 10, 50 μM) compound test, and 1 μg/mL ALDH enzyme was used for IC50s determination. Acetaldehyde was then added to each well to achieve an initial substrate concentration of 1 mM, and the resulting enzymatic activity was measured based on NADH fluorescence. The fluorescence signal was read over the course of 10 min on a SpectraMax M2e microplate reader (340-nm excitation and 460-nm emission; Molecular Devices) operated by SoftMax Pro software. Compound activities were normalized to a DMSO control, and dose-response inhibition curves were fitted with four-parameter non-linear regression using Prism software. […]

[3] = HEK-293T cytotoxicity (cell viability) assay; assay type: cell-based; details: human, HEK-293T cells; adherent HEK-293T, 4-5 days, CellTiter-Glo; read-out: HEK293T GI50
Experimental: HEK-293T cells were seeded into a 96-well plate at a density of 5×10^3 cells/well and treated with varying concentrations of selected compounds or an equivalent amount of DMSO vehicle. The cells were cultured for 4-5 days without a media change, and after the DMSO-treated cells approached 100% confluence, the cell viabilities were measured using a CellTiter-Glo 3D Cell Viability Assay kit (Promega) and a Veritas microplate luminometer (Turner BioSystems) as described above.

SW480 cells (adherent) = test: Cell viability assay, adherent SW480 cultures; assay type: cell-based, human; details: Homo sapiens, SW480, 168 h; adherent culture, 7 days
Experimental: (§1) SW480 or HCT116 cells were seeded into regular or Matrigel-coated 96-well plates at a density of 1000 cells/well. The cells were cultured in the corresponding adherent or spheroid culture medium (200 μL/well) containing the designated compounds or an equivalent amount of DMSO vehicle. Each culture was maintained for 7 days, and then cell viabilities were measured using a CellTiter-Glo 3D Cell Viability Assay kit (Promega). Briefly, 100 μL of the culture medium was removed from each well and replaced with 100 μL 3D Cell Assay reagent. The cells in each well were next homogenized by vigorous pipetting, and the plate was incubated for 10 min at room temperature to stabilize the chemiluminescent signal. A 150-μL aliquot from each well was then transferred into a white opaque 96-well assay plate (flat-bottom and non-treated; Corning Costar) and luminescence intensities were measured with a Veritas microplate luminometer (Turner BioSystems).

SW480 cells (spheroid) = test: Matrigel spheroid growth / viability assay, SW480; assay type: cell-based; details: Homo sapiens, SW480, 168 h; Matrigel spheroid culture, 7 days; read-out: Spheroid SW480 GI50
Experimental: To prepare Matrigel-coated culture plates, 96-well and 24-well plates were placed on ice and coated with 25 μL or 300 μL, respectively, of Matrigel matrix (Corning, LDEV-free) that had been thawed overnight at 4° C. The plates were then placed in a 37° C. incubator for 30 min to allow the Matrigel to solidify. SW480 or HCT116 cells were suspended in spheroid culture medium (RPMI-1640 containing 20 ng/mL recombinant human epidermal growth factor (Abcam, ab9697), 20 ng/mL recombinant human fibroblast growth factor (BioVision, 4037), 5 μg/mL heparin (Sigma), 1× N-2 supplement (Thermo Fisher Scientific), 100 U/mL penicillin, and 100 μg/mL streptomycin) and then seeded into the 96-well and 24-well Matrigel-coated plates at densities of 1,000 or 5,000 cells/well and total well volumes of […] or 1 mL, respectively. Compounds were diluted in spheroid culture medium and added to the wells, and the spheroid were grown at 37° C. with 5% CO2 for 7 days.
To quantify spheroid growth at the 7-day endpoint, unstained spheroids were imaged with phase-contrast illumination using a Keyence BZ-X710 microscope. Some cultures were also stained with crystal violet to enable brightfield imaging. Briefly, the Matrigel spheroids cultures were treated with PBS containing 0.5% crystal violet and 5% methanol for 15 min at 37° C. and then gently washed 4×5 min with PBS. Spheroid sizes were quantified with ImageJ (Fiji) software using masks created with the default “Threshold” function and foreground/background adjustments to optimize masking fidelity. The full field of view was then selected for “Analyze Particles” analysis, providing numbered list of each spheroid and its area in the micrograph. In the few cases that two adjacent spheroids were treated as one object by the image processing software, their measurements were manually corrected using the “Freehand Selections” tool. To exclude background and debris from dead cells, spheroids with areas less than 500 μm^2 were excluded from the image analyses.
as §1

NIH-3T3 cells = test: Seahorse oxygen-consumption-rate assay (NIH3T3); assay type: cell-based, murine; details: Mus musculus

IC50 (ALDH1B1 [2]) [µM]	SMILES	ALDH1B1 inhibition / isoform selectivity (in words) (ALDH1B1 [2])	GI50 [3] [µM]	also measured
0.074	CCc1cc(Cl)ccc1C1=CN(c2ccc(-c3ccccc3CC)cc2)C2=NCCCN12 [STL8-T-0003]		1.3	
0.052	CCc1cc(Cl)ccc1C1=CN(c2ccc(-c3ccccc3)cc2)C2=NCCCN12 [STL8-T-0002]		1.5	
0.042	COc1cc(Cl)ccc1C1=CN(c2ccc(-c3ccccc3)cc2)C2=NCCCCN12 [STL5-T-0025]		5.2	

The next lines start with the compound.

SMILES	IC50 (ALDH1B1 [2]) [µM]	ALDH1B1 inhibition / isoform selectivity (in words) (ALDH1B1 [2])	GI50 [3] [µM]	also measured
COc1ccccc1C1=CN(c2ccc(-c3ccccc3)cc2)C2=NCCCN12 [Guanidine 66]		ALDH1B1-selective inhibitors		effect on ALDH1B1-dependent ALDEFLUOR signal (cellular ALDH1B1 activity) (ALDH1B1 [1]; flow cytometry): inhibits cellular ALDH1B1 activity
Br.COc1ccccc1C1=CN(c2ccc(-c3ccccc3)cc2)C2=NCCCCN12 [Guanidine 68]		ALDH1B1-selective inhibitors		
COc1ccccc1-n1cc(-c2ccc(-c3ccncc3)cc2)[n+]2c1CCCCC2.[Br-] [Imidazolium 13]		ALDH1B1-specific inhibitors; also recorded: enhanced specificity for ALDH1B1 in comparison to imidazolium 2		potency against ALDH1B1 relative to imidazolium 2 (and 8) (ALDH1B1 [2]; dose-response, FIG. 15 panel d): approximately 2 fold
CCOc1ccc(C2=CN(c3ccc(-c4ccccc4OC)cc3)C3=NCCCCN23)c(OC)c1 [Guanidine 64]	0.1			GI50 (SW480 cells (adherent)): 1.3 µM; GI50 (SW480 cells (spheroid)): 1.1 µM
COc1ccccc1N1C=C(c2ccc(-c3ccccc3)cc2)N2CCCCN=C21 [HPI-269]	0.081		3.4	IC50 (ALDH1B1 [1]; ALDEFLUOR, ALDH1B1-overexpressing ALDH1A3−/− A375 cells, read-out: ALDH1B1(in cellulo) IC50): 0.11 µM; IC50 (NIH-3T3 cells): 0.58 µM
